In the assay the target is T1, Jarid1A (Homo sapiens, UniProt P29375).
T1 construct: purchased BPS Bioscience 50110
T1 sequence (P29375 1-1090): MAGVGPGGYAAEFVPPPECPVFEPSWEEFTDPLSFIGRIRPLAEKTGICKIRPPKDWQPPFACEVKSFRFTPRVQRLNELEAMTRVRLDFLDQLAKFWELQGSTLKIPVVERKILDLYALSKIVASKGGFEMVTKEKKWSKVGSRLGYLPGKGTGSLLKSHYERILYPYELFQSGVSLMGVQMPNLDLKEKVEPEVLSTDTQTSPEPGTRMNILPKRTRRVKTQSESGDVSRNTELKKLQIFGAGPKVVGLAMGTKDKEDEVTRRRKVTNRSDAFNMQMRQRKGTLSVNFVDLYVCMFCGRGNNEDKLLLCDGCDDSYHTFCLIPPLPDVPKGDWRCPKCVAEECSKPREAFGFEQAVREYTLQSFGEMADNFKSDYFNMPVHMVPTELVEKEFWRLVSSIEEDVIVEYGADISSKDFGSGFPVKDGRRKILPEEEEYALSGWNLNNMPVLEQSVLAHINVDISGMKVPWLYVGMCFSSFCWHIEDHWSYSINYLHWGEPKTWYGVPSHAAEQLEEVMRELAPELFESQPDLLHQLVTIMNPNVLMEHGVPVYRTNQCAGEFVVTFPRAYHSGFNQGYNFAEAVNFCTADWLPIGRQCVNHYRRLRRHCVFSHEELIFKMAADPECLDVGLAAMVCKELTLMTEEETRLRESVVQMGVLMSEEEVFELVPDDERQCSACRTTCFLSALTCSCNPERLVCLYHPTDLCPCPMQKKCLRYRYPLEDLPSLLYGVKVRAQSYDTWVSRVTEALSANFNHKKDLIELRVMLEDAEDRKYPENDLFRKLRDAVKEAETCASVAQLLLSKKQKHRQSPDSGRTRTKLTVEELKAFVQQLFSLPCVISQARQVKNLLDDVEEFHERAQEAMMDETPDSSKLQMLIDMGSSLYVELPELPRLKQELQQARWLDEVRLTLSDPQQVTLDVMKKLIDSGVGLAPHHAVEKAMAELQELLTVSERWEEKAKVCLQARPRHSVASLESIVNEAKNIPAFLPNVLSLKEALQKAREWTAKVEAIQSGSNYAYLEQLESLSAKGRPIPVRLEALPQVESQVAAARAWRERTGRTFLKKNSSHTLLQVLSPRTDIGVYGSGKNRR
Put plainly: Jarid1A in vitro enzyme inhibition assay (TR-FRET). Type of assay: biochemical. A digest of the protocol: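 Demethylation of 300 nM biotin-H3K4me3 peptide by 1 nM baculovirus-expressed Jarid1A (aa 1–1090) with 2 μM α-ketoglutarate, Fe(II) and ascorbate, pH 7.3, 30 min at room temperature. Stopped with EDTA; H3K4me1-2 product detected by TR-FRET (Eu anti-H3K4me1-2/streptavidin-APC). IC50 fitted from 665/615 ratio over 11-point dilutions.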

As to `O=S(=O)(C1CC1)N1CC[C@@H](n2cc(Oc3nc(O)c4ccncc4n3)cn2)C1` [Example 127, 2-({1-[(3R)-1-(cyclopropanesulfonyl)pyrrolidin-3-yl]-1H-pyrazol-4-yl}oxy)pyrido[3,4-d]pyrimidin-4-ol], the IC50 was at most 100 nM.

The molecule `O=S(=O)(c1ccccc1)N1CC[C@@H](n2cc(Oc3nc(O)c4ccncc4n3)cn2)C1` [Example 128, 2-({1-[(3R)-1-(benzenesulfonyl)pyrrolidin-3-yl]-1H-pyrazol-4-yl}oxy)pyrido[3,4-d]pyrimidin-4-ol] gave an IC50 of at most 100 nM.

Take `CC(=O)N1CC[C@@H](n2cc(Oc3nc(O)c4ccncc4n3)cn2)C1` [Example 129, 1-[(3R)-3-[4-({4-hydroxypyrido[3,4-d]pyrimidin-2-yl}oxy)-1H-pyrazol-1-yl]pyrrolidin-1-yl]ethan-1-one]: the IC50 was at most 100 nM.

For the molecule `N#CCC(=O)N1CC[C@@H](n2cc(Oc3nc(O)c4ccncc4n3)cn2)C1` [Example 130, 3-[(3R)-3-[4-({4-hydroxypyrido[3,4-d]pyrimidin-2-yl}oxy)-1H-pyrazol-1-yl]pyrrolidin-1-yl]-3-oxopropanenitrile], the IC50 is at most 100 nM.

Turning to `O=C(C1CC1)N1CC[C@@H](n2cc(Oc3nc(O)c4ccncc4n3)cn2)C1` [Example 131, 2-({1-[(3R)-1-cyclopropanecarbonylpyrrolidin-3-yl]-1H-pyrazol-4-yl}oxy)pyrido[3,4-d]pyrimidin-4-ol], the IC50 is at most 100 nM.

Take `O=C(c1ccccc1)N1CC[C@@H](n2cc(Oc3nc(O)c4ccncc4n3)cn2)C1` [Example 132, 2-({1-[(3R)-1-benzoylpyrrolidin-3-yl]-1H-pyrazol-4-yl}oxy)pyrido[3,4-d]pyrimidin-4-ol]: the IC50 is at most 100 nM.

Consider `Oc1nc(Oc2cnn([C@@H]3CCN(Cc4ccccc4)C3)c2)nc2cnccc12` [Example 133, 2-({1-[(3R)-1-benzylpyrrolidin-3-yl]-1H-pyrazol-4-yl}oxy)pyrido[3,4-d]pyrimidin-4-ol], for which the IC50 is at most 100 nM.

`Oc1nc(Oc2cnn([C@@H]3CCN(c4ccc(F)cc4)C3)c2)nc2cnccc12` [Example 134, 2-({1-[(3R)-1-(4-fluorophenyl)pyrrolidin-3-yl]-1H-pyrazol-4-yl}oxy)pyrido[3,4-d]pyrimidin-4-ol] yielded an IC50 of at most 100 nM.

For the molecule `Oc1nc(Oc2cnn([C@H]3CCNC3)c2)nc2cnccc12` [Example 135, 2-({1-[(3S)-pyrrolidin-3-yl]-1H-pyrazol-4-yl}oxy)pyrido[3,4-d]pyrimidin-4-ol], the IC50 lay in the range of 100 to 1000 nM.

In turn, `CCS(=O)(=O)N1CC[C@H](n2cc(Oc3nc(O)c4ccncc4n3)cn2)C1` [Example 136, 2-({1-[(3S)-1-(ethanesulfonyl)pyrrolidin-3-yl]-1H-pyrazol-4-yl}oxy)pyrido[3,4-d]pyrimidin-4-ol] had a half-inhibitory concentration (IC50) of at most 100 nM.

In the case of `O=S(=O)(C1CC1)N1CC[C@H](n2cc(Oc3nc(O)c4ccncc4n3)cn2)C1` [Example 137, 2-({1-[(3S)-1-(cyclopropanesulfonyl)pyrrolidin-3-yl]-1H-pyrazol-4-yl}oxy)pyrido[3,4-d]pyrimidin-4-ol], the IC50 was at most 100 nM.

Turning to `O=S(=O)(c1ccccc1)N1CC[C@H](n2cc(Oc3nc(O)c4ccncc4n3)cn2)C1` [Example 138, 2-({1-[(3S)-1-(benzenesulfonyl)pyrrolidin-3-yl]-1H-pyrazol-4-yl}oxy)pyrido[3,4-d]pyrimidin-4-ol], the IC50 was at most 100 nM.

As to `CC(=O)N1CC[C@H](n2cc(Oc3nc(O)c4ccncc4n3)cn2)C1` [Example 139, 1-[(3S)-3-[4-({4-hydroxypyrido[3,4-d]pyrimidin-2-yl}oxy)-1H-pyrazol-1-yl]pyrrolidin-1-yl]ethan-1-one], the IC50 was at most 100 nM.

`N#CCC(=O)N1CC[C@H](n2cc(Oc3nc(O)c4ccncc4n3)cn2)C1` [Example 140, 3-[(3S)-3-[4-({4-hydroxypyrido[3,4-d]pyrimidin-2-yl}oxy)-1H-pyrazol-1-yl]pyrrolidin-1-yl]-3-oxopropanenitrile]: the IC50 is at most 100 nM.
